Measurements: ChEMBL document CHEMBL4619780, “Structure-Activity Relationship Studies of Retro-1 Analogues against Shiga Toxin” (J Med Chem, 2020)

Experiment: cells
Assay type: cell-based
Conditions: Escherichia coli, HeLa
Compound `Cc1ccc(C2Nc3ccccc3C(=O)N2c2ccccc2)s1` (configuration not stated) has an EC50 of 27.3 µM.
Work on `CCC(=O)N1CC(=O)Nc2ccc(Br)cc2C1c1ccccc1` (racemic) yielded an EC50 of 6.2 µM.

Experiment: cells
Assay type: cell-based
Conditions: Escherichia coli, HeLa
Remark: another data set of the same source
In the case of `CC[C@@H](C(=O)[C@@H](C)[C@@H](O)[C@H](C)CCc1ccc(C)c(O)c1C(=O)O)[C@H]1O[C@](CC)([C@H]2CC[C@](O)(CC)[C@H](C)O2)C[C@@H]1C` [LASALOCID], the EC50 is reported as 2 µM.

Experiment: cells
Assay type: cell-based
Conditions: Escherichia coli, HeLa
Remark: another data set of the same source
For `C[C@H]1CCC/C=C/[C@@H]2C[C@H](O)C[C@H]2[C@H](O)/C=C/C(=O)O1` [BREFELDIN A], the EC50 was 5 µM.

Experiment: Inhibition of Escherichia coli shiga toxin
Conditions: not given
In the case of `CC1(C)CC(/C=C/c2ccccc2)=Nc2ccccc2N1`, the EC50 is reported as 50 µM.
For `Cc1cccc(C)c1Nc1c(-c2cc(Br)ccc2O)nc2[nH]cnn12`, the EC50 was 25 µM.
In the case of `O=[N+]([O-])c1ccc(CSc2ncnc3c2ncn3[C@@H]2O[C@H](CO)[C@@H](O)[C@H]2O)cc1` [NITROBENZYLMERCAPTOPURINE RIBONUCLEOSIDE], the EC50 is reported as 25 to 100 µM.
With `CC/C(=C(\c1ccccc1)c1ccc(OCCN(C)C)cc1)c1ccccc1` [TAMOXIFEN] the EC50 was 2 to 10 µM.

Experiment: cells
Assay type: cell-based
Conditions: Escherichia coli, HeLa
Remark: another data set of the same source
`CCCN1CC(=O)Nc2ccc(Br)cc2C1c1ccccc1` (configuration not stated) showed an EC50 of 3.98 µM.
In the case of `CCCN1CC(=O)Nc2ccc(Br)cc2C1c1ccccc1F` (configuration not stated), the EC50 is reported as 3.87 µM.
With `O=C1CN(C2CCCC2)C(c2ccccc2)c2cc(Cl)ccc2N1` (configuration not stated) the EC50 was 0.844 µM.
`O=C1CN(C2CCCC2)C(c2ccccc2)c2cc(Br)ccc2N1` (configuration not stated) showed an EC50 of 0.6 µM.
For `CCCN1CC(=O)Nc2ccc(Br)cc2C1c1ccc(F)cc1F` (configuration not stated), the EC50 was 12.8 µM.
In the case of `O=C1CN(C2CCCCC2)C(c2ccccc2)c2cc(Br)ccc2N1` (configuration not stated), the EC50 is reported as 4.7 µM.
With `CCN1CC(=O)Nc2ccc(Br)cc2C1c1ccccc1` (configuration not stated) the EC50 was 8.81 µM.
With `O=C1CN(C2CCCC2)C(c2ccccc2)c2ccccc2N1` (configuration not stated) the EC50 was 6.11 µM.
With `O=C1CN(C2CCCC2)[C@H](c2ccccc2)c2cc(I)ccc2N1` the EC50 was 0.09 µM.
`CCCN1CC(=O)Nc2ccc(I)cc2C1c1ccccc1` (configuration not stated) showed an EC50 of 1.98 µM.
With `C#CCCN1CC(=O)Nc2ccc(Br)cc2C1c1ccccc1` (configuration not stated) the EC50 was 6.5 µM.
In the case of `O=C1CN(C2CCCC2)C(c2ccccc2)c2cc(F)ccc2N1` (configuration not stated), the EC50 is reported as 2.29 µM.
Compound `CCCN1CC(=O)Nc2ccc(Cl)cc2C1c1ccccc1` (configuration not stated) has an EC50 of 12.8 µM.
`CCCN1CC(=O)Nc2ccc(N=[N+]=[N-])cc2C1c1ccccc1` (configuration not stated) showed an EC50 of 11.1 µM.
Work on `CCCC(=O)N1CC(=O)Nc2ccc(Br)cc2C1c1ccccc1` (configuration not stated) yielded an EC50 of 10.9 µM.
Work on `CC(C1CC1)N1CC(=O)Nc2ccc(Br)cc2C1c1ccccc1` (mixture of isomers) yielded an EC50 of 5.16 µM.
Work on `CC1CCCC1N1CC(=O)Nc2ccc(Br)cc2C1c1ccccc1` (mixture of isomers) yielded an EC50 of 3.91 µM.
For `CC1CCC(N2CC(=O)Nc3ccc(Br)cc3C2c2ccccc2)C1` (mixture of isomers), the EC50 was 1.29 µM.
`O=C1CN(C2CCCC2)C(c2ccccc2)c2cc(I)ccc2N1` (racemic) showed an EC50 of 0.281 µM.
